# Target: Gastrin/cholecystokinin type B receptor (Cavia porcellus)
# Experiment: Inhibition of binding of [125I]gastrin to Cholecystokinin type B receptor from guinea pig gastric glands
row,IC50,SMILES
1,44 µM,CCCCCN(CCCCC)C(=O)C(CCC(=O)OCc1ccccc1)NC(=O)Nc1ccc(Cl)cc1 (centres undefined)
2,13 µM,CCCCCN(CCCCC)C(=O)[C@@H](CCC(=O)O)NC(=O)Nc1cccc(OC)c1
3,4.1 µM,O=C(O)CC[C@H](NC(=O)c1cc2ccccc2[nH]1)C(=O)N(C1CCCCC1)C1CCCCC1
4,0.43 µM,CCCCCN(CCCCC)C(=O)C(CCC(=O)N1CCCC1)NC(=O)Nc1ccc(Cl)cc1 (centres undefined)
